Source: patent US6635629B2, “3-nitrogen-6,7-dioxygen steroids and uses related thereto” (Inflazyme Pharmaceuticals Ltd., priority 2000, dated 2003)

Key:
[1] = system: rat mast cell line (RBL-2H3); assay: Antigen-induced release of hexosaminidase from a rat mast cell line (RBL-2H3); type: cell-based; conditions: inhibition of DNP-HSA antigen-induced hexosaminidase release; tested at 0.3, 3, 10 and 30 μM; read-out: Hex IC50
Protocol: The anti-allergic effects of a compound of the present invention was evaluated by measuring its effect on antigen-induced secretion of hexosaminidase from a passively sensitized rat mast cell line. The ability of a test compound to inhibit the release of mast cell granule contents, e.g., histamine and hexosaminidase, is indicative of the anti-allergy and/or anti-asthma activity of the compound. Hexosaminidase is released from the mast cell granule along with histamine and other mediators during antigen challenge. The test is performed as follows.
RBL-2H3 cells are grown in culture and passively sensitized for 1 hour at 37° C. to dinitrophenol (DNP) using anti-human-DNP (IgE). Cells are incubated with test compound for 30 minutes at 37° C. and stimulated with 0.5 μg/ml DNP-HSA (antigen) for 30 minutes. Aliquots of the supernatant are removed and used to measure the amount of hexosaminidase released during challenge with the antigen. […] The effect of each test compound is determined as a percentage of the antigen-induced response (minus background release) obtained in the presence of DMSO alone. These values are used to determine the degrees of inhibition of antigen-induced hexosaminidase release from the cells.

[2] = system: Jurkat clone E6.1 cells; assay: Antigen-induced (anti-CD3 mAb) calcium flux in Jurkat clone E6.1 cells; type: cell-based; conditions: for Calcium (% inhibition at 20 μM): anti-CD3 mAb 4 μg/mL, Fura 2AM
Source text: Elevation of cytoplasmic calcium concentration is a common and crucial event which follows the activation of many types of cell surface receptors. Increases in intracellular calcium that occur following agonist activation of inositol lipid hydrolysis are the results of calcium release from the endoplasmic reticulum and the influx of calcium through the plasma membrane. Increases in cytosolic calcium concentration are involved in many important cellular responses in the inflammatory process including adhesion, motility, gene expression, proliferation, and degranulation. Changes in intracellular calcium centrations can affect both short and long term cellular responses. An assay method to evaluate a test compound's impact on calcium flux is provided as follows.
The resulting supernatants are discarded and each pellet is washed in 10 mL HBSS. Cell suspensions are accumulated and centrifuged for 5 minutes at 900 RPM to form a cell pellet. The resulting supernatant is discarded and the pellet is resuspended in HBSS at 1×10^7 cells/mL. The cell suspension is transferred to a 20 mm petri dish and incubated at 37° C., 5% CO2 for 20 minutes.
One volume of Fura 2AM is mixed to one volume of detergent Pluronic F127. Cells are labeled with 4 μL of probe solution to each mL of cell suspension. The petri dish is wrapped in aluminum foil to protect from light and placed on a plate shaker for 30 minutes at room temperature.
The following steps are done in the laminar flow hood with the fluorescent lights turned off. The petri dish is removed from the shaker and the labeled cell suspension is transferred to a 15 mL conical tube and washed twice with HBSS as above. The cell pellet is resuspended in 12 mL HBSS and left wrapped in foil for 30 minutes at room temperature. The labeled cell suspension is aliquoted (100 μL/well) into a Dynex 96 well white opaque tissue culture plate. […] Selected compounds were tested for dose related activity. Test samples and activator (anti—CD3 mAb at final concentration of 4 μg/mL, PharMingen) are added manually (50 μL), such that the minimum time to acquire the first data point after stimulation is approximately 30 seconds. The calcium influx response to anti-CD3 mAb is measured as an “end point” assay. The entire plate is read in 100 seconds using a kinetic of 1 second per well.
The plate is read before the addition of anti-CD3 to monitor non-specific effect of samples/drugs. Fluorescence emission is measured at 510 nm with excitation alternating between 340 and 380 every second using an excitation/emission filter pair. Data from these dual wavelengths are represented as a ratio of 2 excitations wavelengths. This ratio is independent of intracellular dye and cell concentrations, enabling real comparison between experiments.

[3] = system: sensitized Brown Norway rats; assay: Ovalbumin-induced accumulation of inflammatory cells in lung lavage fluid of sensitized Brown Norway rats; type: in vivo, rat; conditions: 1 mg/kg/day for 4 days, p.o., corn oil vehicle; relative to control animals
Protocol: The ability of a compound to inhibit the allergen-induced accumulation of inflammatory cells such as eosinophils and neutrophils in the lavage fluid obtained from sensitized animals is indicative of that compound's anti-asthma activity. […] The test is conducted as follows.
Male Brown Norway rats are sensitized to ovalbumin by single intraperitoneal injection of 1 mg ovalbumin adsorbed to 100 mg A(OH)3 (alum) in 1 ml sterile saline (saline control rats receive only sterile saline) on day 1, and allowed to sensitize until day 21. […] Rats are challenged with 0.5% ovalbumin in saline generated using a Devillbis nebulizer for 60 min on day 21.
Forty-eight hrs after challenge, animals are sacrificed with an overdose of intraperitoneally-delivered sodium pentobarbitol and the lungs are lavaged with cold 2×7 ml phosphate buffered saline. The recovered lavage fluid is placed on ice. The bronchoalveolar lavage fluid is centrifuged and the supernatant removed. The pellet is resuspended in phosphate buffered saline at 4° C. Cytospins are prepared and stained for differentiation and enumeration of cell types.
Test compound was administered in 300 μl corn oil (Tables 7 and 8) or water (Table 9), which were used as vehicles. Control animals received 300 μl corn oil or water alone, i.e., no drug. […] A negative value in Table 7, 8, or 9 indicates an exacerbation of the effect over the control animal.

SMILES	IC50 [1] [µM]	Calcium (% inhibition at 20 μM) [2] [%]	% inhibition of eosinophils [3] [%]	% inhibition of lymphocytes [3] [%]	% inhibition of neutrophils [3] [%]	IC50 ([2]; dose response activity examined) [µM]
COC1C(OC)C2CC(N)CCC2(C)C2CCC3=C(CCC3(C)C)C12.Cl (centres unmarked) [Compound 148]	29.2	6.6	–	–	–	–
CC=C1CCC2C3C(O)C(O)C4CC(Nc5cccc(C)c5)CCC4(C)C3CCC12C.Cl (centres unmarked) [Compound 125]	39.4	5.7	–	–	–	–
C=C1CCC2C3C(CC[C@]12C)[C@@]1(C)CC[C@@H](NS(=O)(=O)c2ccccc2)CC1[C@@H](O)[C@@H]3O (some centres unmarked) [Compound 134]	16.7	25.1	–	–	–	–
C=C1CCC2C3C(O)C(O)C4CC(NCc5ccccc5F)CCC4(C)C3CCC12C.CC(=O)O (centres unmarked) [Compound 101]	–	16.3	–	–	–	–
CC(=O)O.CC=C1CCC2C3C(O)C(O)C4CC(N5CCCC5)CCC4(C)C3CCC12C (centres unmarked) [Compound 118]	11	41.8	–	–	–	–
CC=C1CCC2C3C(O)C(O)C4CC(NCCNCCO)CCC4(C)C3CCC12C.Cl.Cl (centres unmarked) [Compound 124]	–	21.0	−55	−26	−76	–
C=C1CCC2C3C(O)C(O)C4CC(NCc5cccc(Oc6ccccc6)c5)CCC4(C)C3CCC12C.CC(=O)O (centres unmarked) [Compound 105]	22.5	10.2	–	–	–	–
CC=C1CCC2C3C(O)C(O)C4CC(NC5CCCC5)CCC4(C)C3CCC12C (centres unmarked) [Compound 116]	9.6	–	–	–	–	–
C=C1CCC2C3C(O)C(O)C4CC(NCc5ccc(OC(F)(F)F)cc5)CCC4(C)C3CCC12C.CC(=O)O (centres unmarked) [Compound 104]	9.5	30.3	–	–	–	–
CC=C1CCC2C3C(O)C(O)C4CC(NCCN(C)C)CCC4(C)C3CCC12C.Cl.Cl (centres unmarked) [Compound 120]	9.1	44.0	–	–	–	–
C=C1CCC2C3C(O)C(O)C4CC(NCc5ccccc5OC)CCC4(C)C3CCC12C.CC(=O)O (centres unmarked) [Compound 103]	11.1	23.7	–	–	–	–
C=C1CCC2C3C(CC[C@]12C)[C@@]1(C)CC[C@@H](NC(=O)c2ccccc2)CC1[C@@H](O)[C@@H]3O (some centres unmarked) [Compound 132]	10	19.6	–	–	–	–
CCC1(C)CCC2=C1CCC1C2C(O)C(O)C2CC(NCc3ccccc3)CCC21C.Cl (centres unmarked) [Compound 147]	18.1	36.3	40	36	58	–
CC=C1CCC2C3C(O)C(O)C4CC(NCCNCCC)CCC4(C)C3CCC12C.Cl.Cl (centres unmarked) [Compound 119]	–	54.5	–	–	–	≤ 10
C=C1CCC2C3C(CC[C@]12C)[C@@]1(C)CC[C@@H](NC(C)=O)CC1[C@@H](O)[C@@H]3O (some centres unmarked) [Compound 131]	–	–	16	21	57	–
C/C=C1/CCC2C3C(CC[C@]12C)[C@@]1(C)CCC(NC)CC1[C@@H](O)[C@@H]3O (some centres unmarked) [Compound 113]	9.8	45.0	–	–	–	–
C=C1CCC2C3C(CC[C@]12C)[C@@]1(C)CC[C@@H](NC(=O)NCCC)CC1[C@@H](O)[C@@H]3O (some centres unmarked) [Compound 138]	15	9.0	−52	33	35	–

SMILES	IC50 [1] [µM]	Calcium (% inhibition at 20 μM) [2] [%]	% inhibition of eosinophils [3] [%]	% inhibition of lymphocytes [3] [%]	% inhibition of neutrophils [3] [%]	IC50 ([2]; dose response activity examined) [µM]
CC(=O)O.CC=C1CCC2C3C(O)C(O)C4CC(N5CCNCC5)CCC4(C)C3CCC12C (centres unmarked) [Compound 121]	14.4	42.4	–	–	–	–
Cc1cccc(CNC2CCC3(C)C(C2)C(O)C(O)C2C4=C(CCC23)C(C)(C)CC4)c1.Cl (centres unmarked) [Compound 140]	10.2	21.5	–	–	–	–
CC=C1CCC2C3C(O)C(O)C4CC(Nc5ccc(S(N)(=O)=O)cc5)CCC4(C)C3CCC12C.Cl (centres unmarked) [Compound 127]	10.1	29.4	–	–	–	–
CC=C1CCC2C3C(O)C(O)C4CC(NCCCCC)CCC4(C)C3CCC12C.Cl (centres unmarked) [Compound 115]	11.1	40.0	–	–	–	–
CC=C1CCC2C3C(O)C(O)C4CC(Nc5ccc(O)cc5)CCC4(C)C3CCC12C.Cl (centres unmarked) [Compound 126]	9.7	45.0	–	–	–	–
C=C1CCC2C3C(CC[C@]12C)[C@@]1(C)CCC(N)CC1[C@@H](OC)[C@@H]3OC (some centres unmarked) [Compound 80]	10.7	7.4	–	–	–	–
CCC1(C)CCC2=C1CCC1C2C(O)C(O)C2CC(Nc3ccccc3)CCC21C.Cl (mixture of isomers) [Compound 144]	6.9	13.0	–	–	–	–
CC=C1CCC2C3C(O)C(O)C4CC(NCCCCCO)CCC4(C)C3CCC12C.Cl (centres unmarked) [Compound 123]	16.7	12.8	–	–	–	–
CC(=O)O.CC=C1CCC2C3C(O)C(O)C4CC(NC5CCCCC5)CCC4(C)C3CCC12C (centres unmarked) [Compound 117]	6.6	42.2	–	–	–	–
CC=C1CCC2C3C(O)C(O)C4CC(NCCO)CCC4(C)C3CCC12C.Cl (centres unmarked) [Compound 122]	12.3	31.4	–	–	–	–
CC=C1CCC2C3C(O)C(O)C4CC(NCCC)CCC4(C)C3CCC12C.Cl (centres unmarked) [Compound 114]	–	37.9	–	–	–	–
C=C1CCC2C3C(CC[C@]12C)[C@@]1(C)CC[C@@H](NS(=O)(=O)C(C)C)CC1[C@@H](O)[C@@H]3O (some centres unmarked) [Compound 133]	–	–	−43	28	40	–
CC=C1CCC2C3C(O)C(O)C4CC(N5CCOCC5)CCC4(C)C3CCC12C.Cl (centres unmarked) [Compound 111]	9.3	53.1	–	–	–	–
CCC1(C)CCC2=C1CCC1C2C(O)C(O)C2CC(Nc3cccc(C(F)(F)F)c3)CCC21C.Cl (mixture of isomers) [Compound 145]	22	−0.2	–	–	–	–
C=C1CCC2C3C(O)C(O)C4CC(NCc5cccc(C(F)(F)F)c5)CCC4(C)C3CCC12C.CC(=O)O (centres unmarked) [Compound 102]	10	9.5	–	–	–	–
C=C1CCC2C3C(CC[C@]12C)[C@@]1(C)CCC(N)CC1[C@@H](O)[C@@H]3O (some centres unmarked) [Compound 54]	–	19.8	−82	−7	−19	–
C=C1CCC2C3C(O)C(O)C4CC(NCc5cccc([N+](=O)[O-])c5)CCC4(C)C3CCC12C (centres unmarked) [Compound 106]	8.8	8.1	–	–	–	–
